Measured values as given in article PMC11007962, “First-in-human study of GFH018, a small molecule inhibitor of transforming growth factor-β receptor I inhibitor, in patients with advanced solid tumors” (BMC Cancer, 2024).
Marks after values point to notes of the source that are not given here.

Assays:
[1] = tested on: TGF-β-induced SMAD3 phosphorylation; set-up: method as in doi:10.1158/1538-7445.AM2019-3072; settings: preclinical; cited from earlier work
[2] = set-up: method as in PMID 25488804, PMID 26309397; settings: consecutive regimens; cited from earlier work
[3] = Plasma pharmacokinetics (LC-MS/MS, noncompartmental analysis); assay type: in vivo, human
Experimental: For patients enrolled in the escalation part of the study, PK blood samples were collected at C1D1 predose; 0.5 h, 1 h, 2 h, 4 h, 8 h, and 12 h postdose; d 2 (24 h), d 3 (48 h), d 4 (72 h), and d 10 predose; d 17 (for 14 d-on/14 d-off regimen) or d 24 (for 7 d-on/7 d-off regimen) predose; and 0.5 h, 1 h, 2 h, 4 h, 8 h, and 12 h postdose. For patients enrolled in the expansion part, PK samples were collected predose on the last administration day and 0.5 h, 1 h, 2 h, 4 h, 8 h, and 12 h postdose on the last administration day. GFH018 levels in plasma samples were analyzed using a validated liquid chromatography-tandem mass spectrometry method. GFH018 PK parameters were determined using noncompartmental analysis methods and calculated using Phoenix WinNonlin Version 8.3.1 (Certara, Princeton, NJ, USA). GFH018 plasma concentrations and PK parameters were summarized descriptively according to the dose level.

[4] = multiple dose, 5 mg BID 14d-on/14d-off (N=3)
[5] = multiple dose, 10 mg BID 14d-on/14d-off (N=3)
[6] = multiple dose, 20 mg BID 14d-on/14d-off (N=3)
[7] = multiple dose, 30 mg BID 14d-on/14d-off (N=7)
[8] = multiple dose, 40 mg BID 14d-on/14d-off (N=3)
[9] = multiple dose, 50 mg BID 14d-on/14d-off (N=2)
[10] = multiple dose, 65 mg BID 14d-on/14d-off (N=6)
[11] = multiple dose, 85 mg BID 7d-on/7d-off (N=5)
[12] = multiple dose, 85 mg BID 14d-on/14d-off (N=7), escalation and expansion parts combined
[13] = single dose, 5 mg BID 14d-on/14d-off (N = 4)
[14] = single dose, 10 mg BID 14d-on/14d-off (N = 3)
[15] = single dose, 20 mg BID 14d-on/14d-off (N = 4)
[16] = single dose, 30 mg BID 14d-on/14d-off (N = 7)
[17] = single dose, 40 mg BID 14d-on/14d-off (N = 4)
[18] = single dose, 50 mg BID 14d-on/14d-off (N = 4)
[19] = single dose, 65 mg BID 14d-on/14d-off (N = 6)
[20] = single dose, 85 mg BID 7d-on/7d-off (N = 6)
[21] = single dose, 85 mg BID 14d-on/14d-off (N = 9), dose escalation part only

## Cc1cccc(-c2nn3c(c2-c2ccc4ncnn4c2/C=C/C(N)=O)CCC3)n1 [GFH018]
[1]
  effect on TGF-β-induced SMAD3 phosphorylation: ability to inhibit TGF-β-induced SMAD3 phosphorylation
[2]
  cardiac findings in toxicology studies: cardiac lesions occur
[3]; 5 – 85 mg
  PK linearity: linear and dose-independent
[3]; 5 – 85 mg (single and multiple dose)
  mean half-life: 2.25 to 8.60 h
[3]; all cohorts
  geometric CV% of exposure (Cmax and AUC) at the steady state: 7.3–168.9%
[3]; [4]
  AUCtau, geometric mean (geometric CV): 597 (61.1) h*ng/mL
  Cmax, geometric mean (geometric CV): 165 (15.7) ng/mL
  Cmin, geometric mean (geometric CV): 7.48 (208.2) ng/mL
  Racc (accumulation ratio calculated by AUC), geometric mean (geometric CV): 1.02 (37.9)
  Tmax, median (minimum, maximum): 0.88 (0.42, 0.95) h
  t1/2, geometric mean (geometric CV): 2.67 (31.0) h
[3]; [5]
  AUCtau, geometric mean (geometric CV): 997 (168.9) h*ng/mL
  Cmax, geometric mean (geometric CV): 291 (124.9) ng/mL
  Cmin, geometric mean (geometric CV): 15.8 (212.1) ng/mL
  Racc (accumulation ratio calculated by AUC), geometric mean (geometric CV): 1.22 (40.3)
  Tmax, median (minimum, maximum): 0.92 (0.90, 1.27) h
  t1/2, geometric mean (geometric CV): 2.25 (26.5) h
[3]; [6]
  AUCtau, geometric mean (geometric CV): 2056 (76.9) h*ng/mL
  Cmax, geometric mean (geometric CV): 676 (48.0) ng/mL
  Cmin, geometric mean (geometric CV): 25.5 (137.3) ng/mL
  Racc (accumulation ratio calculated by AUC), geometric mean (geometric CV): 1.15 (17.4)
  Tmax, median (minimum, maximum): 0.93 (0.57, 1.08) h
  t1/2, geometric mean (geometric CV): 2.55 (24.6) h
[3]; [7]
  AUCtau, geometric mean (geometric CV): 5605 (76.6) h*ng/mL
  Cmax, geometric mean (geometric CV): 1167 (87.9) ng/mL
  Cmin, geometric mean (geometric CV): 144 (107.2) ng/mL
  Racc (accumulation ratio calculated by AUC), geometric mean (geometric CV): 1.32 (39.4)
  Tmax, median (minimum, maximum): 1.10 (0.47, 2.58) h
  t1/2, geometric mean (geometric CV): 4.09 (36.8) h
[3]; [8]
  AUCtau, geometric mean (geometric CV): 5144 (30.3) h*ng/mL
  Cmax, geometric mean (geometric CV): 1599 (33.7) ng/mL
  Cmin, geometric mean (geometric CV): 21.0 (2741.3) ng/mL
  Racc (accumulation ratio calculated by AUC), geometric mean (geometric CV): 1.18 (6.7)
  Tmax, median (minimum, maximum): 0.88 (0.38, 1.00) h
  t1/2, geometric mean (geometric CV): 2.45 (42.8) h
[3]; [9]
  AUCtau, geometric mean (geometric CV): 4432 (43.6) h*ng/mL
  Cmax, geometric mean (geometric CV): 1253 (7.3) ng/mL
  Cmin, geometric mean (geometric CV): 91.4 (72.9) ng/mL
  Racc (accumulation ratio calculated by AUC), geometric mean (geometric CV): 1.26 (9.2)
  Tmax, median (minimum, maximum): 0.75 (0.50, 1.00) h
  t1/2, geometric mean (geometric CV): 3.53 (3.1) h
[3]; [10]
  AUCtau, geometric mean (geometric CV): 8189 (29.3) h*ng/mL
  Cmax, geometric mean (geometric CV): 2303 (34.0) ng/mL
  Cmin, geometric mean (geometric CV): 129 (51.8) ng/mL
  Racc (accumulation ratio calculated by AUC), geometric mean (geometric CV): 1.17 (25.3)
  Tmax, median (minimum, maximum): 1.88 (0.50, 2.00) h
  t1/2, geometric mean (geometric CV): 2.59 (9.6) h
[3]; [11]
  AUCtau, geometric mean (geometric CV): 7732 (46.8) h*ng/mL
  Cmax, geometric mean (geometric CV): 2193 (29.1) ng/mL
  Cmin, geometric mean (geometric CV): 115 (92.5) ng/mL
  Racc (accumulation ratio calculated by AUC), geometric mean (geometric CV): 1.04 (32.5)
  Tmax, median (minimum, maximum): 0.50 (0.50, 1.00) h
  t1/2, geometric mean (geometric CV): 2.92 (18.3) h
[3]; [12]
  AUCtau, geometric mean (geometric CV): 11353 (27.9) h*ng/mL
  Cmax, geometric mean (geometric CV): 3034 (33.6) ng/mL
  Cmin, geometric mean (geometric CV): 164 (54.3) ng/mL
  Tmax, median (minimum, maximum): 0.50 (0.50, 2.05) h
[3]; multiple dose, 85 mg BID 14d-on/14d-off (N=7), n=5 for Racc
  Racc (accumulation ratio calculated by AUC), geometric mean (geometric CV): 1.18 (24.1)^e
[3]; multiple dose, 85 mg BID 14d-on/14d-off (N=7), n=5 for t1/2
  t1/2, geometric mean (geometric CV): 3.01 (20.0)^d h
[3]; multiple doses
  geometric mean accumulation ratio (Racc, by AUC) across all dose groups: 1.02–1.32
[3]; multiple doses / overall, 5–85 mg
  increase of exposure with dose: increased in an approximately proportional manner
[3]; multiple doses, any cohort
  accumulation: No obvious accumulation
[3]; oral
  absorption after oral administration: rapidly absorbed
[3]; single dose, 5–85 mg
  increase of plasma exposure (AUC0-t and Cmax) with dose: increased in an approximately proportional manner
[3]; [13]
  AUC0-12, geometric mean (geometric CV): 690 (51.3) h*ng/mL
  AUC0-inf, geometric mean (geometric CV): 769 (58.3) h*ng/mL
  AUC0-t, geometric mean (geometric CV): 754 (58.4) h*ng/mL
  Cmax, geometric mean (geometric CV): 215 (50.2) ng/mL
  Tmax, median (minimum, maximum): 0.65 (0.40, 0.97) h
  t1/2, geometric mean (geometric CV): 4.42 (82.9) h
[3]; [14]
  AUC0-12, geometric mean (geometric CV): 819 (99.0) h*ng/mL
  AUC0-inf, geometric mean (geometric CV): 864 (110.5) h*ng/mL
  AUC0-t, geometric mean (geometric CV): 852 (111.3) h*ng/mL
  Cmax, geometric mean (geometric CV): 250 (72.2) ng/mL
  Tmax, median (minimum, maximum): 0.88 (0.42, 0.93) h
  t1/2, geometric mean (geometric CV): 3.11 (106.3) h
[3]; [15]
  AUC0-12, geometric mean (geometric CV): 2551 (107.3) h*ng/mL
  AUC0-inf, geometric mean (geometric CV): 2825 (123.9) h*ng/mL
  AUC0-t, geometric mean (geometric CV): 2802 (123.7) h*ng/mL
  Cmax, geometric mean (geometric CV): 743 (65.1) ng/mL
  Tmax, median (minimum, maximum): 0.49 (0.43, 1.03) h
  t1/2, geometric mean (geometric CV): 4.90 (115.1) h
[3]; [16]
  AUC0-12, geometric mean (geometric CV): 4250 (50.4) h*ng/mL
  AUC0-inf, geometric mean (geometric CV): 4926 (47.8) h*ng/mL
  AUC0-t, geometric mean (geometric CV): 4895 (48.2) h*ng/mL
  Cmax, geometric mean (geometric CV): 972 (82.7) ng/mL
  Tmax, median (minimum, maximum): 0.95 (0.37, 3.80) h
  t1/2, geometric mean (geometric CV): 5.74 (37.6) h
[3]; [17]
  AUC0-12, geometric mean (geometric CV): 4147 (30.3) h*ng/mL
  AUC0-inf, geometric mean (geometric CV): 4603 (35.2) h*ng/mL
  AUC0-t, geometric mean (geometric CV): 4561 (35.3) h*ng/mL
  Cmax, geometric mean (geometric CV): 1180 (24.7) ng/mL
  Tmax, median (minimum, maximum): 0.69 (0.37, 0.90) h
[3]; single dose, 40 mg BID 14d-on/14d-off (N = 4), n=3 for t1/2
  t1/2, geometric mean (geometric CV): 8.60 (103.8)^b h
[3]; [18]
  AUC0-12, geometric mean (geometric CV): 5100 (57.9) h*ng/mL
  AUC0-inf, geometric mean (geometric CV): 5906 (49.3) h*ng/mL
  AUC0-t, geometric mean (geometric CV): 5858 (50.2) h*ng/mL
  Cmax, geometric mean (geometric CV): 1209 (85.4) ng/mL
  Tmax, median (minimum, maximum): 0.96 (0.47, 1.92) h
  t1/2, geometric mean (geometric CV): 5.93 (51.2) h
[3]; [19]
  AUC0-12, geometric mean (geometric CV): 7028 (10.9) h*ng/mL
  AUC0-inf, geometric mean (geometric CV): 7870 (17.9) h*ng/mL
  AUC0-t, geometric mean (geometric CV): 7831 (17.8) h*ng/mL
  Cmax, geometric mean (geometric CV): 2172 (16.3) ng/mL
  Tmax, median (minimum, maximum): 0.68 (0.48, 2.00) h
  t1/2, geometric mean (geometric CV): 5.51 (34.3) h
[3]; [20]
  AUC0-12, geometric mean (geometric CV): 7455 (27.3) h*ng/mL
  AUC0-inf, geometric mean (geometric CV): 8284 (28.1) h*ng/mL
  AUC0-t, geometric mean (geometric CV): 8240 (27.9) h*ng/mL
  Cmax, geometric mean (geometric CV): 2555 (29.9) ng/mL
  Tmax, median (minimum, maximum): 0.50 (0.50, 1.10) h
  t1/2, geometric mean (geometric CV): 7.45 (61.8) h
[3]; [21]
  AUC0-12, geometric mean (geometric CV): 10074 (42.0) h*ng/mL
  AUC0-inf, geometric mean (geometric CV): 11164 (45.4) h*ng/mL
  AUC0-t, geometric mean (geometric CV): 11119 (45.5) h*ng/mL
  Cmax, geometric mean (geometric CV): 3225 (35.5) ng/mL
  Tmax, median (minimum, maximum): 0.58 (0.45, 1.12) h
  t1/2, geometric mean (geometric CV): 6.37 (41.6) h
